Results from article PMC9231138, “Dihydrotanshinone I Enhances Cell Adhesion and Inhibits Cell Migration in Osteosarcoma U−2 OS Cells through CD44 and Chemokine Signaling” (Molecules, 2022).

What was measured:
Format in all cases: cell-based, human
[1] = test system: U−2 OS cells; assay: Scratch motility (wound-healing) assay
Protocol: U-2 OS cells were seeded in 6-well plates at a density of 200,000 per well and cultured to 90% abundance after 18 h. The cells were scratched with a 10 μL pipette tip along the ruler; each well was scratched 3 times in parallel, and the line was drawn perpendicular to the scratch on the back for fixed-point photography. We suctioned the previous medium and washed the cells with a PBS reagent. Then, we added 2% FBS medium with DS−1 and cultured the cells at 37 °C for different times. After 0, 24, and 48 h, the plate was taken out, and the scratches were observed and photographed by the inverted microscope, while the distance of scratches at different times was measured.
Cell mobility = (pre-migration distance – post-migration distance)/pre-migration distance × 100%. The cell migration rate of blank control was set as 100%, and the relative cell migration rate = cell migration rate/cell migration rate of control group × 100%

[2] = test system: E-cadherin; assay: RT-PCR E-cadherin mRNA in U−2 OS cells; details: 24 h
Protocol: Total RNA within cells was extracted by the RNAeasy™ Animal Long RNA Isolation Kit with Spin Column (Shanghai, Beyotime); the concentrations and OD260/OD280 and OD230/OD260 values were measured by NanoDrop. Five micrograms of RNA was used for reverse transcription; each sample was diluted to 16 μL, and 4 μL of synthesized premix solution (5×) was added, then the mixtures were placed in a 42 °C water bath for 10 min, then an 80 °C water bath for 10 min to deactivate reverse transcriptase. After reverse transcription, each sample was diluted to 140 μL. PCR amplification was carried out by the ABI700 real-time PCR system, and the amplification reaction was detected with a SYBR probe. After PCR, actin and GAPDH were used as internal references, and the relative standard curve method (2^−ΔΔcT) determined the relative expression of mRNA.

[3] = test system: U−2 OS cells; assay: RNA-seq differential gene expression; details: DS−1 6.25 µM, 24 h
Protocol: Sample preparation: U−2 OS cells were seeded in a 10 cm culture dish, and we cultured them to the logarithmic growth phase, suctioned the previous medium, and added new medium with DS−1 at 0 and 6.25 μM; each group was repeated two times. After 24 h of culture, the dish was washed with PBS reagent 3 times. One milliliter of TRIzol reagent was added to every dish for cell lysate and then collected in centrifuge tubes.
Transcriptome sequencing and analysis were carried out by Novogene Bioinformatics Technology Co., Ltd. (Beijing, China).
Raw data in the fastq format were firstly processed through in-house Perl scripts. In this step, clean data were obtained by removing reads containing adapter or containing ploy-N and low-quality reads from raw data. […]
Reference genome and gene model annotation files were downloaded from the genome website directly. The index of the reference genome was built using Hisat2 v2.0.5 (https://github.com/DaehwanKimLab/hisat2, accessed on 4 May 2022), and paired-end clean reads were aligned to the reference genome using Hisat2 v2.0.5. FeatureCounts v1.5.0-p3 (https://github.com/byee4/featureCounts, accessed on 4 May 2022) was used to count the reads numbers mapped to each gene. Then the Fragments PerKilobase of transcript sequence per Millions […] (FPKMs) of each gene were calculated based on the length of the gene and reads’ count mapped to this gene. […]

[4] = test system: phospho−FOXO1; assay: Western blot phospho−FOXO1
Protocol: Figure 3 DS−1 inhibited the expression of transcription factor FOXO1 in U−2 OS cells. (A) U−2 OS cells were treated with DS−1 at 0, 3.125, 6.25, and 12.5 μM, and the changes in FOXO1 were analyzed by immunofluorescent staining, followed by confocal microscopy imaging. (B) U−2OS cells were treated with DS−1 at 0, 3.125, 6.25, and 12.5 μM, and FOXO1 and pFOXO1 were analyzed by Western blot; the changes were presented in histograms (C,D). (E) U−2 OS cells were treated with DS−1 at 6.25 μM for 0, 12, 24, and 48 h, then FOXO1 was analyzed by Western blot, and the changes are presented in the histogram (F). (G) The pFOXO1/FOXO1 value is shown in the histogram. […]
Sample preparation: U−2 OS cells seeded in 10 cm Petri dishes were collected and washed with ice-cold PBS and RIPA lysis buffer with PMAF; phosphatase inhibitor was added, and the tubes were placed on ice for 30 min and vortexed for 30 s at intervals of 10 min. […] The protein samples were placed on ice, and the concentration of each protein sample was measured by the BCA kit (Thermo). […]
Antibody staining: We blocked the membrane for 1 h at room temperature using 5% blocking solution, then incubated the membrane with appropriate dilutions of the primary antibody in the blocking solution overnight at 4 °C. […] Images were acquired using darkroom development techniques for chemiluminescence and analyzed by Image J.

Compound: Cc1cccc2c3c(ccc12)C1=C(C(=O)C3=O)[C@@H](C)CO1 [DS−1, 15,16-Dihydrotanshinone I]
- relative mobility compared to control cells ([1]; DS−1 2.5 µM, 24 h): 24.8 ± 9.9%
- relative mobility compared to control cells ([1]; DS−1 2.5 μM, 48 h): 18.1 ± 6.6%
- relative mobility compared to control cells ([1]; DS−1 5.0 µM, 24 h): 17.5 ± 6.6%
- relative mobility compared to control cells ([1]; DS−1 5.0 μM, 48 h): 7.3 ± 7.1%
- relative mobility compared to control cells ([1]; DS−1 7.5 µM, 24 h): 6.6 ± 0.8%
- relative mobility compared to control cells ([1]; DS−1 7.5 μM, 48 h): 4.3 ± 1.8%
- E-cadherin mRNA, fold of the control group ([2]; DS−1 2.5 µM): 1.21 ± 0.16 fold
- E-cadherin mRNA, fold of the control group ([2]; DS−1 5.0 µM): 1.26 ± 0.25 fold
- E-cadherin mRNA, fold of the control group ([2]; DS−1 7.5 µM): 1.61 ± 0.16 fold
- number of genes downregulated (of 23,517 detected) [3]: 4643 genes
- number of genes upregulated (of 23,517 detected) [3]: 4104 genes
- phosphorylation of FOXO1 (pFOXO1/FOXO1 value) ([4]; with increasing concentration of DS−1, Image J): increased
- phospho−FOXO1 ([4]; with the concentration of DS−1 (3.125, 6.25, 12.5 μM) and the time of treatment (6.25 μM, 12, 24, 48 h)): reduced
